Series [1] has as its target Nicotinamide phosphoribosyltransferase (Homo sapiens, UniProt P43490). In words: Inhibition of human NAMPT using NAM as substrate assessed as NMN formation preincubated for 5 mins followed by substrate addition measured after 15 mins by fluorometric assay.
Series [2] can be described thus: Metabolic stability in mouse liver microsomes assessed as parent compound remaining at 5 uM measured at 30 mins in presence of NADPH. The series is classed as ADME. The note with it: read-out: Stability.
Series [3] in a line: Metabolic stability in human liver microsomes assessed as parent compound remaining at 5 uM measured at 30 mins in presence of NADPH. The series is classed as ADME. The note with it: read-out: Stability.
Series [4] is described as follows: Permeability across human Caco2 cells assessed as drug recovery. The series is classed as ADME, cell-based. The settings on record: Caco-2, read-out: Drug recovery.
A short description of series [5]: Metabolic stability in mouse liver microsomes assessed as parent compound remaining at 5 uM measured at 30 mins in absence of NADPH. In kind it is ADME. The settings on record: read-out: Stability. (Liver microsomes are vesicles of endoplasmic reticulum, rich in cytochrome P450 enzymes.)
Series [6] addresses CYP2C9 (Homo sapiens, UniProt P11712). In words: Inhibition of CYP2C9 (unknown origin) at 3 uM relative to control. The series is classed as ADME.
Series [7] addresses T1, CYP1A2 (Homo sapiens, UniProt P05177).
T1 sequence (P05177 whole entry): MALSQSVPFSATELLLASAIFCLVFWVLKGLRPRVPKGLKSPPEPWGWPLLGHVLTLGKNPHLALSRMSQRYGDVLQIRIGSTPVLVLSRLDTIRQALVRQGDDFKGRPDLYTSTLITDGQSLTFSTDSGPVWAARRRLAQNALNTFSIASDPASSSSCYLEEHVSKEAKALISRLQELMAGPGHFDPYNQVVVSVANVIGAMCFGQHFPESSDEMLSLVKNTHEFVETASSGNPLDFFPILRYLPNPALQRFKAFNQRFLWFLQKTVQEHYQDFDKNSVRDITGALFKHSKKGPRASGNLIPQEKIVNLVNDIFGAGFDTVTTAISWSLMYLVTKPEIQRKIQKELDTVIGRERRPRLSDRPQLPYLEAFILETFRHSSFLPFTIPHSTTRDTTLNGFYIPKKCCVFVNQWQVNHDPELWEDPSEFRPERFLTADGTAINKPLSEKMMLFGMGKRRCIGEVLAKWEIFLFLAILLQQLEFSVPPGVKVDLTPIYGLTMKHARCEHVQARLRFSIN
Put plainly: Inhibition of CYP1A2 (unknown origin) at 3 uM relative to control. The series is classed as ADME.

Series [8] addresses Nicotinamide phosphoribosyltransferase (Mus musculus) (UniProt Q99KQ4). Put plainly: Inhibition of NAMPT in neonatal mouse superior cervical ganglion explant assessed as delay in degeneration of injured axons at 1 uM treated <10 mins prior to axon transection meaured at 8 hrs by phase contrast microscopy. In kind it is tissue-based.
Series [9] addresses CYP3A4 (Homo sapiens, UniProt P08684). In words: Inhibition of CYP3A4 (unknown origin) at 3 uM relative to control. In kind it is ADME.
Series [10] concerns the target CYP2D6 (Homo sapiens, UniProt P10635). In words: Inhibition of CYP2D6 (unknown origin) at 3 uM relative to control. The series is classed as ADME.
The nature of series [11]: Plasma protein binding in human. In kind it is ADME, cell-free. The note with it: read-out: PPB (converted).
A short description of series [12]: Metabolic stability in human liver microsomes assessed as parent compound remaining at 5 uM measured at 30 mins in absence of NADPH. The series is classed as ADME. The note with it: read-out: Stability.
The target of series [13] is Nicotinamide phosphoribosyltransferase (Mus musculus) (UniProt Q99KQ4). The settings on record: Superior cervical ganglion, 100 nM.
Description: Inhibition of NAMPT in neonatal mouse superior cervical ganglion explant assessed as delay in degeneration of injured axons at 100 nM treated <10 mins prior to axon transection meaured at 8 to 24 hrs by phase contrast microscopy

Molecules are shown by their SMILES. The source made the active and inactive calls. No cut-off for these calls is given here.

Nicotinamide phosphoribosyltransferase, sequence (P43490 whole entry): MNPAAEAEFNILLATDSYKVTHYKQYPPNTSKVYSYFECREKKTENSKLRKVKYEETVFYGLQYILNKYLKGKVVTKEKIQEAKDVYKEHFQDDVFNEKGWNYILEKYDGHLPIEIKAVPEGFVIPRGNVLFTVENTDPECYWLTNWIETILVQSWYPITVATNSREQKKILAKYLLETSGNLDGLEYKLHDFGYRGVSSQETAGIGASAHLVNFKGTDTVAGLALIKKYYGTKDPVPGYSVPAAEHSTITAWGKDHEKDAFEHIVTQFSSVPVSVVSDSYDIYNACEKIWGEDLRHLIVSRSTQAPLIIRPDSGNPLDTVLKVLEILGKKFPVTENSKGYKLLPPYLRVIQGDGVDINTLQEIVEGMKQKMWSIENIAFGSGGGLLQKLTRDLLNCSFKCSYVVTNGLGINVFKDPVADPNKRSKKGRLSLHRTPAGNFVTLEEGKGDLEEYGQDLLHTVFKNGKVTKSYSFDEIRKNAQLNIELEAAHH
CYP2D6, sequence (P10635 whole entry): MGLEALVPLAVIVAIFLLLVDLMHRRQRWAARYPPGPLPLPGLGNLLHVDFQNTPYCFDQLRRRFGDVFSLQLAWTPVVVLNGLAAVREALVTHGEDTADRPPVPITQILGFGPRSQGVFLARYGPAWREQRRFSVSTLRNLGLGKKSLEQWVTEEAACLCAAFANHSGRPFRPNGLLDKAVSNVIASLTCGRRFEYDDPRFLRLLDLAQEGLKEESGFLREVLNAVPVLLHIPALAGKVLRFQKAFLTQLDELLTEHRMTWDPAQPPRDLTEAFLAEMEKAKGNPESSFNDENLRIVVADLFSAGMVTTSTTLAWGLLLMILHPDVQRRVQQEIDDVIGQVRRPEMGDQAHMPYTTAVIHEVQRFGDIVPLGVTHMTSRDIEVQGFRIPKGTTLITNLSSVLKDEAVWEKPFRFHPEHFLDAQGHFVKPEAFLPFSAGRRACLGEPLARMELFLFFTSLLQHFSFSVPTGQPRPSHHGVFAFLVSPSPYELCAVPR
CYP2C9, sequence (P11712 whole entry): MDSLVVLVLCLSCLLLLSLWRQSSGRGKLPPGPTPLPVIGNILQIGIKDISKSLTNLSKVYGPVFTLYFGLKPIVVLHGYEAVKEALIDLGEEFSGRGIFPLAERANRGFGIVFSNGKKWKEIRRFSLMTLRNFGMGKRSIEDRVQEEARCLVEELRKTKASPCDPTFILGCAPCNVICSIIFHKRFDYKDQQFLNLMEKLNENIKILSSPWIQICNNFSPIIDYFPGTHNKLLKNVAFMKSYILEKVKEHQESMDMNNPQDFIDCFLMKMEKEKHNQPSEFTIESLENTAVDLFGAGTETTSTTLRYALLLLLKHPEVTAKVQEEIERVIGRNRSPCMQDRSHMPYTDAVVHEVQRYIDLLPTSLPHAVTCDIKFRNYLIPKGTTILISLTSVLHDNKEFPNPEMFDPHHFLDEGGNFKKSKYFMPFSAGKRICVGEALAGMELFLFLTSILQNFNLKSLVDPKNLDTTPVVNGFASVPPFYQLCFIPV
Nicotinamide phosphoribosyltransferase (Mus musculus), sequence (Q99KQ4 whole entry, looked up): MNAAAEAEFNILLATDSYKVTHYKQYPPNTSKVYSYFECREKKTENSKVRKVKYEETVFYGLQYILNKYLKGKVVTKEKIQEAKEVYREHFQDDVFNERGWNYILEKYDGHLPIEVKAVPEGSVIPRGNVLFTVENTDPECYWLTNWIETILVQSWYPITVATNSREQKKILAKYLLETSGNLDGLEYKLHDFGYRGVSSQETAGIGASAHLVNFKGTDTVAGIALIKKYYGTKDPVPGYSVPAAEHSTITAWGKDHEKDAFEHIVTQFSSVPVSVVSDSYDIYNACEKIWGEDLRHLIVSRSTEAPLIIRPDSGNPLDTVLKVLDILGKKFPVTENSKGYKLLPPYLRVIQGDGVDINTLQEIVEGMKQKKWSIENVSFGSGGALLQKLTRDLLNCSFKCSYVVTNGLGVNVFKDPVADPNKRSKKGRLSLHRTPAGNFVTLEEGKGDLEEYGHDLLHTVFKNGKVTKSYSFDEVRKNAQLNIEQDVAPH
CYP3A4, sequence (P08684 whole entry): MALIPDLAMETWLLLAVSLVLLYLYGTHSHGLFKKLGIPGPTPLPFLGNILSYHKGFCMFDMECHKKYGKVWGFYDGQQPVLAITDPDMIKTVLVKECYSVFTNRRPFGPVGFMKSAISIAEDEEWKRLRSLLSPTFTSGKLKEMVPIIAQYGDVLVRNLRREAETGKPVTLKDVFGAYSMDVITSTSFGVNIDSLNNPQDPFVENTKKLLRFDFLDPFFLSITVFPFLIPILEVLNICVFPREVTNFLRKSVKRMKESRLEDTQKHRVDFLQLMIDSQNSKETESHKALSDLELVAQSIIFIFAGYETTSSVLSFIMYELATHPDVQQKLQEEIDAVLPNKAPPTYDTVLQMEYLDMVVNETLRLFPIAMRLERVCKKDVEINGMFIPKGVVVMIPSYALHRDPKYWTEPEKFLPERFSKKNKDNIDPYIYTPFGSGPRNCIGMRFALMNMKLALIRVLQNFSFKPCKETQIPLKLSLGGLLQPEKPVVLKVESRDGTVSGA

As a reminder, the IC50 is the concentration needed to halve the response being measured. Regarding `CC1(C)Cc2cccc(OCCNC(=O)/C=C/c3cccnc3)c2O1`, the concentration for half-maximal inhibition (IC50) in [1] is 940 nM.

In the case of `O=C(c1cc(-c2cccnc2)n[nH]1)N1CCN(C(=O)c2cc3ccccc3[nH]2)CC1`, the IC50 in series [1] came out at 3800 nM.

On to `O=C(/C=C/c1cccnc1)Nc1ccc(C(=O)NCC(F)(F)F)cc1`, for which the IC50 in series [1] was 220 nM.

For the molecule `O=C(NCc1cccnc1)c1cc2n(n1)CCN(Cc1ccc(Cl)c(Cl)c1)C2=O`, the IC50 in [1] came to 320 nM.

Turning to `O=C(COc1ccc(S(=O)(=O)Nc2ccc(Cl)cc2)cc1)NCc1cccnc1`, the IC50 in series [1] turned out to be 1900 nM.

In the case of `O=C(NCCOc1ccc2ccccc2c1)NCc1cccnc1`, the IC50 in series [1] was 5000 nM.

One may read the inhibition as the drop in the measured response relative to a control, in per cent. Consider `O=C(c1cc(-c2cccnc2)[nH]n1)N1CCN(C(c2ccccc2)c2ccccc2)CC1`, for which the remaining at 0.5 h, 5 µM in series [2] amounted to 19%; in [3], 63%; in series [5], 96%; in [12], 104%. Besides, the recovery in series [4] is below 70%. Moreover, the inhibition at 3 µM in [6] is 43%; in series [7], 23%; in series [9] it was 20%; in series [10], 3%. Further, the inhibition entry in [8] was “Active”. In addition, the IC50 in [1] is 243 nM. Further, the fraction unbound in [11] was 0.004.

With `O=C(/C=C/c1cccnc1)N1CCN(Cc2csc(-c3ccc(F)cc3)n2)CC1`, in series [1], the IC50 is 3200 nM.

For the molecule `O=C(/C=C/c1cccnc1)N1CCN(Cc2ccc(OC(F)(F)F)cc2)CC1`, in series [1], the IC50 came out at 780 nM.

As to `O=C(/C=C/c1cccnc1)Nc1ccc(-c2nnc3n2CCCCC3)cc1`, the IC50 in [1] amounted to 670 nM.

As to `CCCCc1ccc(NC(=O)C2CC2c2cccnc2)cc1` (stereo not drawn), the remaining at 0.5 h, 5 µM in series [2] was 43%; in series [3], 7%; in series [5], 87%; in [12] it was 96%. In addition, the recovery in series [4] is below 70%. The inhibition at 3 µM in series [6] is 31%; in series [7], 22%; in series [9] it was 63%; in series [10] it was 1%. Further, the IC50 in [1] came out at 41.8 nM. In addition, the fraction unbound in series [11] was 0.008.

`O=C(/C=C/c1cccnc1)NCCCCC1CCN(C(=O)c2ccccc2)CC1`: in series [13], the inhibition entry was “Active”.

These data come from ChEMBL document CHEMBL3797081, “Application of virtual screening to the discovery of novel nicotinamide phosphoribosyltransferase (NAMPT) inhibitors with potential for the treatment of cancer and axonopathies” (Bioorg Med Chem Lett, 2016).
